pIC50: −log10 of the molar value. Where two headings read alike, the source gives them in different places.
Legend:
hTRPC4 = target: T1, hTRPC4 (Homo sapiens, UniProt Q9UBN4); test: Whole-cell manual patch clamp; type: cell-based; conditions: 10 µM carbachol /M1R
T1 construct: The cDNAs for various full-length ion channels were subcloned into pcDNA5/TO; expressed in transfected cells; M1R co-expressed in the calcium assay, M2R in patch clamp

β1 (h) = target: T2, β1 (h) (Homo sapiens, UniProt P08588); type: binding; conditions: 1.0E-06 M
T2 construct: host or cells: HEK-293 cells
T2 sequence (P08588 whole entry): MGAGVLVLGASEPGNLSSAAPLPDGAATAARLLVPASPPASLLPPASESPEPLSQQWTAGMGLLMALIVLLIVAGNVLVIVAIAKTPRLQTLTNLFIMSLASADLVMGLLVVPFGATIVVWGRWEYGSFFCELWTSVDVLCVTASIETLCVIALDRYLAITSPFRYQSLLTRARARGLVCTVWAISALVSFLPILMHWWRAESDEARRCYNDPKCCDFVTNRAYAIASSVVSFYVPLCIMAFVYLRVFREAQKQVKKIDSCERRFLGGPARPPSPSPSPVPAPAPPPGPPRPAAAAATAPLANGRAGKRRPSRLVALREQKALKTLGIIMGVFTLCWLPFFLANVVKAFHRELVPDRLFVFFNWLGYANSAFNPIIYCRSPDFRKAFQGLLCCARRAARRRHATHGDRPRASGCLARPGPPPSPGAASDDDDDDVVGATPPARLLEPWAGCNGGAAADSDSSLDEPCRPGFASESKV

ETB (h) = target: T3, ETB (h) (Homo sapiens, UniProt P24530); type: binding
T3 construct: host or cells: CHO cells
T3 sequence (P24530 27-442): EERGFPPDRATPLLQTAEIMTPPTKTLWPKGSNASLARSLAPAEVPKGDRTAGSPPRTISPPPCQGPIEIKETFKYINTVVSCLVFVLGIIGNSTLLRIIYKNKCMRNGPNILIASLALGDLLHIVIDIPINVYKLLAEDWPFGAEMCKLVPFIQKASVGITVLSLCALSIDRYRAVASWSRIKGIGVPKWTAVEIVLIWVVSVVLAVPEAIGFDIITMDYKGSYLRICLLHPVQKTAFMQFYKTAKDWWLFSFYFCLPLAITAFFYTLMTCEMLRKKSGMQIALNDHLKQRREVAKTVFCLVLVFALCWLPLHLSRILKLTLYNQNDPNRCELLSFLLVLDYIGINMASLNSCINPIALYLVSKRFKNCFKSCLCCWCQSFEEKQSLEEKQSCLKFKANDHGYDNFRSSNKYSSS

CysLT1 (LTD4) (h) = target: T4, CysLT1 (LTD4) (h) (Homo sapiens, UniProt Q9Y271); type: binding; conditions: 1.0E-06 M
T4 construct: host or cells: CHO cells
T4 sequence (Q9Y271 1-337): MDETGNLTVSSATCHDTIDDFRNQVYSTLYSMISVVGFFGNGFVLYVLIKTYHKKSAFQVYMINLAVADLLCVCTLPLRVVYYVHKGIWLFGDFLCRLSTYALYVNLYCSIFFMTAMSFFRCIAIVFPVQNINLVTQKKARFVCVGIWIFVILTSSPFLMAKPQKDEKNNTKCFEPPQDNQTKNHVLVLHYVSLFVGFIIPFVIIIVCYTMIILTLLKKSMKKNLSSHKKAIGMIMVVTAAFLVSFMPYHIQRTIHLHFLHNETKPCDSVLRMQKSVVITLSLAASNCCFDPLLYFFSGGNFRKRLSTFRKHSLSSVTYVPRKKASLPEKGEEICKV

motilin (h) = target: T5, motilin (h) (Homo sapiens, UniProt O43193); type: binding
T5 construct: host or cells: CHO cells

UT (h) = target: T6, UT (h) (Homo sapiens, UniProt Q9UKP6); type: binding
T6 construct: host or cells: CHO cells
T6 sequence (Q9UKP6 1-389): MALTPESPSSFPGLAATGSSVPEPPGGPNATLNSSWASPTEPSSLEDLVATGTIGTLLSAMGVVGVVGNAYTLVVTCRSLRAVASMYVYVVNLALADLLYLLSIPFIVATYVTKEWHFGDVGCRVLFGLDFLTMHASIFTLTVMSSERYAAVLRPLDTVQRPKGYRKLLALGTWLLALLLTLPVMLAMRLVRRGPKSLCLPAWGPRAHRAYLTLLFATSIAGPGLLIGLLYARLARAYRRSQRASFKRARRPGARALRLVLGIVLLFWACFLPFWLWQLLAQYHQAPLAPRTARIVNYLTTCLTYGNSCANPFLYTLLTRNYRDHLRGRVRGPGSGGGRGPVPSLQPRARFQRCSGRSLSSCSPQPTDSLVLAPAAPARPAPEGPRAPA

[1] = target: Ca2+ channel (L, diltiazem site) (benzothiazepines) (Rattus norvegicus, UniProt P22002); type: binding
Sequence of Ca2+ channel (L, diltiazem site) (benzothiazepines) (P22002 whole entry): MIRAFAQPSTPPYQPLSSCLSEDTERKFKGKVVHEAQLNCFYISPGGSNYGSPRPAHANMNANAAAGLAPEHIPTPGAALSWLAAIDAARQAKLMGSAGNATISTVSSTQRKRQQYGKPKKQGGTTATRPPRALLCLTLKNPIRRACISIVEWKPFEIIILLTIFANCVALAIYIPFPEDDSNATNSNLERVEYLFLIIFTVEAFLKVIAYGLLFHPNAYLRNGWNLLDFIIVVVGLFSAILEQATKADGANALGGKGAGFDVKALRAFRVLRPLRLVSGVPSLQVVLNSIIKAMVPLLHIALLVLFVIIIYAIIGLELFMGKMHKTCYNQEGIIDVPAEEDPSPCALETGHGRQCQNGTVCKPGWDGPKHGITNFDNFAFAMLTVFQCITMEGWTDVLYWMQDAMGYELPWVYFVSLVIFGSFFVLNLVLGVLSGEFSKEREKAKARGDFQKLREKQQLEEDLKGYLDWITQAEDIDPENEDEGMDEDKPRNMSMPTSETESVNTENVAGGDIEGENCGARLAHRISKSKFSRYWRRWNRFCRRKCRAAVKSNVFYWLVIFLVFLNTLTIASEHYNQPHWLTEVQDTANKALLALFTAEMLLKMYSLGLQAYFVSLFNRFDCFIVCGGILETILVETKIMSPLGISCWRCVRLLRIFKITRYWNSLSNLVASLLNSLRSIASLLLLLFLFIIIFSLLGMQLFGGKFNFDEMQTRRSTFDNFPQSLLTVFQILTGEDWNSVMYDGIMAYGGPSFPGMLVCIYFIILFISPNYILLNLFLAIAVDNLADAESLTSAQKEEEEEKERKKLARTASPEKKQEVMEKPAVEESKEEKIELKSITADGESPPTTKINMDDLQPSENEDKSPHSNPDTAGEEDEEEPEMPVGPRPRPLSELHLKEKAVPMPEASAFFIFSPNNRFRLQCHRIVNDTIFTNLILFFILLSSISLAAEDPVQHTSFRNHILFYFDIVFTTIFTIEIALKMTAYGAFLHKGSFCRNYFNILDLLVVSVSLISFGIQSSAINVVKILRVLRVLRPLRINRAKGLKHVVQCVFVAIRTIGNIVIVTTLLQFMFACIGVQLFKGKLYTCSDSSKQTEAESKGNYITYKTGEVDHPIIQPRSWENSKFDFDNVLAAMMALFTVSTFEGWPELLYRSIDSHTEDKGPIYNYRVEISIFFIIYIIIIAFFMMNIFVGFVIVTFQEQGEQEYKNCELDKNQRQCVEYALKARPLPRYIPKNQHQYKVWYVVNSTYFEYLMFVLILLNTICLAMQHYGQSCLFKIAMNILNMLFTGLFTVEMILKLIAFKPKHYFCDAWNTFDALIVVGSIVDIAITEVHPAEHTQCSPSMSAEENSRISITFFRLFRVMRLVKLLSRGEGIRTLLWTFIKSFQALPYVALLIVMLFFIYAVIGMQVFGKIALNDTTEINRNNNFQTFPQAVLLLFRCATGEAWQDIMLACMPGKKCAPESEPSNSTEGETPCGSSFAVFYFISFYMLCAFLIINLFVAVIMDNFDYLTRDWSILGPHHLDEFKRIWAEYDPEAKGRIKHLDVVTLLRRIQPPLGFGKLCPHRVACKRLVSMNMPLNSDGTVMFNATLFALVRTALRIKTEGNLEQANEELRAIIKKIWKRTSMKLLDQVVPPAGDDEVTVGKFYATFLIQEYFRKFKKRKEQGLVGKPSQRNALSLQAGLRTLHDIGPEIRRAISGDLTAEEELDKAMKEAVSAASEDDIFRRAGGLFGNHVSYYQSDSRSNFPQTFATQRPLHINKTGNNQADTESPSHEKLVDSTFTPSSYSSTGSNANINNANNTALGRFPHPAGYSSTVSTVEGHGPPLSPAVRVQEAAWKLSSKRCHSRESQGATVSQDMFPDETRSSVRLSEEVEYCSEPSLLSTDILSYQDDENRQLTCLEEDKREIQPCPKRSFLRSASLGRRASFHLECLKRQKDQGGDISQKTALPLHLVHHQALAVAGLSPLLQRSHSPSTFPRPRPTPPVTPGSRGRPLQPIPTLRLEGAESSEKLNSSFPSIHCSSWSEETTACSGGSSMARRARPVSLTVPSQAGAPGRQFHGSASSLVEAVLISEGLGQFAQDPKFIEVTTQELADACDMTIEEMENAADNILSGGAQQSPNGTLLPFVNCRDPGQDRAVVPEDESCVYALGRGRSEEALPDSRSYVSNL

PDE3A (h) = PDE3A (h) (Homo sapiens, UniProt Q14432); test: biochemical; conditions: 1.0E-06 M
Sequence of PDE3A (h) (Q14432 whole entry): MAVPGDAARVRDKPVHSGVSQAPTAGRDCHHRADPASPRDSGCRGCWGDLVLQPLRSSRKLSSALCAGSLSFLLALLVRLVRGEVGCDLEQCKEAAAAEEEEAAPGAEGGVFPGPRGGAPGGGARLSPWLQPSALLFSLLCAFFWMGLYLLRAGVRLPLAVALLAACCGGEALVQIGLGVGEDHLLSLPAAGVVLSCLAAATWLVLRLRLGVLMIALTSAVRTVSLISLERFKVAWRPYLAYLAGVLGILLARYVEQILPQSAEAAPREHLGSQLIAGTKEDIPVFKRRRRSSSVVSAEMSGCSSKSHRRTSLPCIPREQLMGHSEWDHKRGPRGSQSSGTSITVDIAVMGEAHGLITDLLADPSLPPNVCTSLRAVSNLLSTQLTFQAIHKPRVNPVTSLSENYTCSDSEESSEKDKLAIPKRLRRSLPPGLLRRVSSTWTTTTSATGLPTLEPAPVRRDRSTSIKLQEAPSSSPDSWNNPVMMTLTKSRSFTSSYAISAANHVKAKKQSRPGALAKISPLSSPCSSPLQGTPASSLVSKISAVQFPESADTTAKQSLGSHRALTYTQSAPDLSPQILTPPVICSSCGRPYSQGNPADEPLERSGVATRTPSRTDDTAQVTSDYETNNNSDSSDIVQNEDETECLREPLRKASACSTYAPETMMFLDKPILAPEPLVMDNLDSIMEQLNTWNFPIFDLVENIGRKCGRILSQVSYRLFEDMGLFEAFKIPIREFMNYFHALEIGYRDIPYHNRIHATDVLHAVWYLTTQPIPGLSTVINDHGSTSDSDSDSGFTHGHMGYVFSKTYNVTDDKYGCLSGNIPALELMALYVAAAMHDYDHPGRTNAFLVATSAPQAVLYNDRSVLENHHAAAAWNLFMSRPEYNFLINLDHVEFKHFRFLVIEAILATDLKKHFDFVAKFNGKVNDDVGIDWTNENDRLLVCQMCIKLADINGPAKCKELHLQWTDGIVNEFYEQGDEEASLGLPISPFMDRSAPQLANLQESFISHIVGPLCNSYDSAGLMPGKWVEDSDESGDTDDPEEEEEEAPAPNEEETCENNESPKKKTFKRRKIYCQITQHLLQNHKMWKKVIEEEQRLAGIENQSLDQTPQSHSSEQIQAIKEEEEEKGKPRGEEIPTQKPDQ

[2] = target: T7, phosphatase 1B (h) (PTP1B) (Homo sapiens, UniProt P18031); test: enzyme assay; type: biochemical; conditions: 1.0E-06 M
T7 construct: host or cells: E. coli
T7 sequence (P18031 1-435): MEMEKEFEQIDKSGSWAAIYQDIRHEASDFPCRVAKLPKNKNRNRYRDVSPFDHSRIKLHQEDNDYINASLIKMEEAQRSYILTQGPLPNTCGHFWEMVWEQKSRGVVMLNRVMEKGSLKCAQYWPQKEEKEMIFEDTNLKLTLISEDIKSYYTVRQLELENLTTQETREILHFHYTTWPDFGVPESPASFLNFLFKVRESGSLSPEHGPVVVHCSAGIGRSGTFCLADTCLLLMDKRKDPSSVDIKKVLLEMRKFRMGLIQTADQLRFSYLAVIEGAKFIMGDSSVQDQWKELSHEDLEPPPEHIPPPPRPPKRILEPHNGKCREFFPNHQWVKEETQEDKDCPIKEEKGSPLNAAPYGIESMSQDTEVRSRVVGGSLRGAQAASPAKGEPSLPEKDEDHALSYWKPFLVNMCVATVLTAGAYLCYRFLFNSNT

p38α kinase (h) = p38α kinase (h) (Homo sapiens, UniProt Q16539); test: enzyme assay; type: biochemical; conditions: 1.0E-06 M
Sequence of p38α kinase (h) (Q16539 whole entry): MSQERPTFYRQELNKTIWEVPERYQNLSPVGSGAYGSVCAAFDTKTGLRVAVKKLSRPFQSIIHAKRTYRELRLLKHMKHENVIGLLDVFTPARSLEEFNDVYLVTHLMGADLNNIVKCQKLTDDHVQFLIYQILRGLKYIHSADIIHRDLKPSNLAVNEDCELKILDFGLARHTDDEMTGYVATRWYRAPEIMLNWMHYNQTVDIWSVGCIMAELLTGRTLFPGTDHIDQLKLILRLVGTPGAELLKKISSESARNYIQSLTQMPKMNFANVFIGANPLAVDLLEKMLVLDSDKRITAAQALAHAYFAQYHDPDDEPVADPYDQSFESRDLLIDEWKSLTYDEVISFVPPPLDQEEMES

D2S (h) = D2S (h) (Homo sapiens, UniProt P14416); test: biochemical
Sequence of D2S (h) (P14416 1-414 isoform P14416-2): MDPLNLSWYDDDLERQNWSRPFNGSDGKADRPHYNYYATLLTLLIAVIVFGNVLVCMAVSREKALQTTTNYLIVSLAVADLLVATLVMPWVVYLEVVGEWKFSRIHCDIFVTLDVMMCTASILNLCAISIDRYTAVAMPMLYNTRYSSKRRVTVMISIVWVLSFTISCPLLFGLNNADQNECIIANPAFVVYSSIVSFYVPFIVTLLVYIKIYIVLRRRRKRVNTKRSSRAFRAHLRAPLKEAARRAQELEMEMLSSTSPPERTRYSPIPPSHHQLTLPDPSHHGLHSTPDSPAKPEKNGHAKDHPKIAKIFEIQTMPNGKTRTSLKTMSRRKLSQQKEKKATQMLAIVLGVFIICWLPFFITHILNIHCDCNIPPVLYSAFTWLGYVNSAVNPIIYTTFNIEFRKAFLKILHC

5-HT6 (h) = 5-HT6 (h) (Homo sapiens, UniProt P50406); test: biochemical
Sequence of 5-HT6 (h) (P50406 whole entry): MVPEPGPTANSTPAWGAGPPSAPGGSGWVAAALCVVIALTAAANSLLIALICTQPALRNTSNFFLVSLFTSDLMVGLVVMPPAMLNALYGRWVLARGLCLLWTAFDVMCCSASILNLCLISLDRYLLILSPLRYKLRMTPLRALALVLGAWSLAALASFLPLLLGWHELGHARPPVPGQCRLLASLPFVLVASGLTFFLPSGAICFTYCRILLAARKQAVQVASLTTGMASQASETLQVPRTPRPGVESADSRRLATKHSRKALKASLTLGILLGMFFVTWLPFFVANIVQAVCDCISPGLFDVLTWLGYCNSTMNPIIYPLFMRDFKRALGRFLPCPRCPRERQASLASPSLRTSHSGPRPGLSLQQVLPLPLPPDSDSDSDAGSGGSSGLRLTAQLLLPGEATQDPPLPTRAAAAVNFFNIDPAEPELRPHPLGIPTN

[3] = 1.0E-06 M, read-out: % Inhibition 2nd
[4] = 1.0E-06 M, read-out: % Inhibition Mean

Cn1c(=O)n(CCCO)c(=O)c2c1nc(Oc1cccc(OC(F)(F)F)c1)n2Cc1ccc(Cl)cc1 [HC-608]
pIC50 (hTRPC4): ~9.77 | inhibition at 1 µM (β1 (h); read-out: % Inhibition 1st): -14.5% | inhibition at 1 µM (β1 (h); read-out: % Inhibition 2nd): -1.8% | inhibition at 1 µM (β1 (h); read-out: % Inhibition Mean): -8.1% | inhibition at 1 µM (ETB (h); [3]): -0.1% | inhibition at 1 µM (ETB (h); [4]): 12.7% | inhibition at 1 µM (ETB (h); read-out: % Inhibition 1st): 25.5% | inhibition at 1 µM (CysLT1 (LTD4) (h); read-out: % Inhibition 1st): 13.2% | inhibition at 1 µM (CysLT1 (LTD4) (h); read-out: % Inhibition 2nd): 3.4% | inhibition at 1 µM (CysLT1 (LTD4) (h); read-out: % Inhibition Mean): 8.3% | inhibition at 1 µM (motilin (h); 1.0E-06 M, read-out: % Inhibition 1st): -25.4% | inhibition at 1 µM (motilin (h); [3]): -16.2% | inhibition at 1 µM (motilin (h); read-out: % Inhibition Mean): -20.8% | inhibition at 1 µM (UT (h); [3]): 7% | inhibition at 1 µM (UT (h); [4]): 9.3% | inhibition at 1 µM (UT (h); read-out: % Inhibition 1st): 11.5% | % Inhibition 1st [1]: -1.9% | % Inhibition 2nd [1]: 8.8% | % Inhibition Mean [1]: 3.4% | inhibition at 1 µM (PDE3A (h); read-out: % Inhibition 1st): 3.1% | inhibition at 1 µM (PDE3A (h); read-out: % Inhibition 2nd): 0.2% | inhibition at 1 µM (PDE3A (h); read-out: % Inhibition Mean): 1.7% | % Inhibition 1st [2]: -6.7% | % Inhibition 2nd [2]: -5.9% | % Inhibition Mean [2]: -6.3% | % Inhibition 1st (p38α kinase (h)): -0.9% | % Inhibition 2nd (p38α kinase (h)): -1.2% | % Inhibition Mean (p38α kinase (h)): -1.1% | inhibition at 1 µM (D2S (h); read-out: % Inhibition 1st): 19.2% | inhibition at 1 µM (D2S (h); read-out: % Inhibition 2nd): 9.4% | inhibition at 1 µM (D2S (h); read-out: % Inhibition Mean): 14.3% | inhibition at 1 µM (5-HT6 (h); read-out: % Inhibition 1st): -5.1% | inhibition at 1 µM (5-HT6 (h); read-out: % Inhibition 2nd): 7.3% | inhibition at 1 µM (5-HT6 (h); read-out: % Inhibition Mean): 1.1%
